Test results from paper PMC4492750, “The discovery of a selective and potent A2a agonist with extended lung retention” (Pharmacology Research & Perspectives, 2015).
pEC50: −log10 of the molar value.

Key:
[1] = Plasma protein binding by equilibrium dialysis; format: in vitro ADME; details: male, Wistar, pH 7.4, rat plasma, 10 μmol/L, read-out: fu rat (free unbound drug in plasma)
Procedure: (§1) • Human A2a and A2b receptor pharmacology: Chinese hamster ovary CHO-K1 cells stably expressing human A2a and A2b receptors were used to determine substances agonistic potency and intrinsic activity. […] The signal corresponding to adenosine at 100 μmol/L was used to define 100% intrinsic activity. • Human A3 receptor pharmacology: A3 receptor Gi coupling was measured by GTPγ ^35[S] filter assay at serial dilutions of compound using membranes from Perkin-Elmer. The signal corresponding to the maximal response of NECA at 100 μmol/L was set to 100% intrinsic activity. • Lipopolysaccharide (LPS)-induced TNFα production in primary human peripheral blood mononuclear cells (hTNFα PBMC) and rat mononuclears (rTNFα splenocytes): Human PBMC and rat mononuclear spleen cells were incubated with serial dilutions of compound and stimulated with LPS.
The plasma protein binding was determined in plasma from male Wistar rats at a compound concentration of 10μM by equilibrium dialysis against a phosphate buffer at pH 7.4 using a semi-permeable membrane with a molecular cut-off of 6-8KDa (Spectra/Por, Spectrum Laboratories Inc, US). The compounds were dialyzed for 18h at 37±1°C in an air incubator on an orbital shaker. The samples were analysed using LC-MS/MS.

[2] = Substance solubility in phosphate buffer; format: physicochemical; details: aqueous buffer, thermodynamic from solid; phosphate buffer pH 7.4, dry compound in solid state
Procedure: as §1
Solubility was measured in phosphate buffer at pH 7.4 using dry compounds in solid state.

[3] = In vivo pharmacokinetics in rats (i.v., oral, intratracheal)
Procedure: Rat PK was determined after an i.v. dose of 0.1μmol/kg (approximately 50μg/kg, 1ml/kg, TEG:H2O 50:50) given via a catheter in vena jugularis. The PK after oral administration was performed at a dose of 6μmol/kg (approximately 3mg/kg, 4ml/kg, 0.5% HPMC) given by gavage. Intratracheal PK was determined at 0.03 to 0.6μmol/kg (17 to 300μg/kg, 1ml/kg, in a vehicle containing sodium chloride (8.5mg/ml), EDTA (0.1mg/ml), citric acid (0.15mg/ml), sodium citrate (0.5mg/ml) and polysorbate 80 (0.2mg/mL) in purified water). The i.t. dose was given to anaesthetized (isofluran) rats, positioned at approximately 30° angle (head up) and the compound was administered in the trachea using a modified metal cannula. Rats were put back in their cages while regaining consciousness. Serial blood sampling of 100 to 200µl was performed after i.v. and p.o. dosing at pre-defined timepoints. Blood was mixed 1:4 with purified water containing heparin (10 to 30U/ml) in order to haemolyse the blood cells, and then placed in a 96-well plate and stored at –70°C until analysed. The dilution factor was accounted for in the data analysis. After i.t. dosing, animals were euthanized with isoflurane or pentobarbital at defined timepoints after dosing, blood samples taken from the vena jugularis or arteria carotis, handled and stored as described above. The rats were bled to drain as much blood as possible from the lungs. The lungs including the trachea were carefully dissected out with all non-relevant tissue removed, placed in pre-weighed vials and weighed. The lung vials were stored at –70°C until analyzed.
Lung tissue was frozen in liquid nitrogen and homogenised using a CryoPrep pneumatic hammer. The homogenisation of the tissue and the extraction of the compound were done in 4ml Ringer solution with an Adaptive Focused Acoustic Instrument. 50µl of the supernatant was transferred to a 96-well plate. All lung, blood and plasma samples were analysed by LC-MS/MS using a selective and sensitive method. Peak areas were used in comparison to those produced by the standard curve to determine parent compound concentrations. Homogenate concentrations were adjusted to account for the sample dilutions to give tissue concentrations.

[4] = system: blood pressure and heart rate; details: rat, in vivo
Source text: A mixed effect model with fixed effects for time after dose, treatment groups, and number of doses, was set up for the analysis of the blood pressure and HR data (SAS v.9.2). A random intercept was included to allow for individual baseline blood pressures, as well as a random effect on the number of doses. Seven days before initiation of the dosing regimen, 24 rats were anaesthetized (isoflurane) and a small telemetry unit (PA-C10, Data Sciences International, USA) was placed subcutaneously on the left side of the throat with the catheter going into the left carotid artery. […] The compound was given by intratracheal instillation as described above, for 5 consecutive days, and blood pressure and heart rate were continuously recorded, apart from the brief period during compound administration.

A2a [5] = target: T1, A2a (Homo sapiens, UniProt P29274); test: Selectivity panel of 98 targets in binding assays (Ricerca): A2a; set-up: Ricerca (contract panel); details: 10 μmol/L of compound; data on AstraZeneca file
Procedure: The medicinal chemistry synthetic optimization focused on the position C2 and N6 (Fig.2) with the aim to discover a compound with high A2a potency, high selectivity, low lipophilicity (logD), and high solubility. […] Selectivity of compound 2 was tested across 98 targets in binding assays (www.ricerca.com). The only identified significant hits (i.e., >50% effect at 10 μmol/L of compound 2) were A2a (∼100%) and A3 (∼84%) data on AstraZeneca file.

A2a [6] = target: T1, A2a; test: Human A2a receptor pharmacology: cAMP Alphascreen in CHO-K1 cells; format: cell-based; set-up: expressed in transfected cells; host or cells: CHO-K1
Procedure: as §1
Chinese hamster ovary CHO-K1 cells stably expressing human A2a and A2b receptors were stored as 1ml aliquots at -150 °C in freezing medium, thawed immediately prior to assay. […] Cells (10000 cells/well) were incubated with test compounds prepared as serial dilutions. Potency (EC50) and efficacy (% of maximal response) were calculated from data fitted to a 4-parameter logistic function. The signal of 10µM NECA represented the maximal cAMP response (i.e. 100% of efficacy) produced by these cells.

T1 sequence (P29274 whole entry): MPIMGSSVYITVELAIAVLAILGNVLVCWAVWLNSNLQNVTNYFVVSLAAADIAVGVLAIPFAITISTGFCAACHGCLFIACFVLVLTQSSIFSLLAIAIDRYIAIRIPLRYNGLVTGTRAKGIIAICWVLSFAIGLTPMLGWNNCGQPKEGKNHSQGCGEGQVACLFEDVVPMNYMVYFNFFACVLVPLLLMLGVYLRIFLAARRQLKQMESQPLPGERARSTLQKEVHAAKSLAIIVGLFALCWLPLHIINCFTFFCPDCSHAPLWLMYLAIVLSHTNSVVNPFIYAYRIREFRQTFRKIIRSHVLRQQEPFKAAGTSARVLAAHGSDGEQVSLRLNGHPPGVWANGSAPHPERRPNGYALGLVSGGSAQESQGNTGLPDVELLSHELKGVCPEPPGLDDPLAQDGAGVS

CCNC(=O)[C@H]1O[C@@H](n2cnc3c(NC(CC)CC)nc(NCCNC(=O)Nc4cc[n+](C)cc4)nc32)[C@H](O)[C@@H]1O [Compound 2, (2S,3S,4R,5R)-N-ethyl-5-[6-(1-ethylpropylamino)-2-[2-[(1-methylpyridin-1-ium-4-yl)carbamoylamino]ethylamino]purin-9-yl]-3,4-dihydroxy-tetrahydrofuran-2-carboxamide]
fraction unbound at 18 h, 10 μM [1]: 0.44
solubility [2]: > 1000 µM
Increase of rat lung t½ in comparison with UK-432,097 ([3]; i.t.): 13 fold
Rat blood clearance ([3]; i.v., mean of n = 3): 19 mL/min per kg
half-life ([3]; lung, inhaled or intranasal, rat, intratracheal dosing, n = 2/time point, read-out: Lung t½ (terminal half-life in lung) (converted)): 53 h
Kp at 24 h ([3]; other: intratracheal (i.t.), rat, i.t., ratio of lung concentration 24 h after dose to blood Cmax after same dose, read-out: Lung/blood split): 460
Percentage of dose remaining in lung at 24 h ([3]; rat, single i.t. dose (17 and 20 μmol/kg for compounds 2 and 3 as printed in Fig. 5), 24 h): 28%
bioavailability ([3]; whole blood, 6 umol/kg, rat, oral, mean of n = 3, read-out: Rat oral F (bioavailability)): 0.3%
Tachyphylaxis for the HR [4]: did not demonstrate any tachyphylaxis
Effect in binding assay, A2a (A2a [5]): ~100%
Emax (A2a [6]; CHO-K1, 100% = 10 μmol/L NECA, average (SD), read-out: A2a human CHO-K1 cells Intrinsic activity): 97.9%
pEC50 (A2a [6]; cAMP generation, average (SD)): 8.85
Selectivity for A2a over A1, A2b and A3 (A2a [6]; human adenosine receptors): > 1000 fold
